Laboratory results reported in patent publication US20060270648A1, “USE OF POLYAMINES WITH ANTIBIOTICS” (priority 2005, published 2006).
In brackets after ≈: the same amount, converted by molar mass. Where two headings read alike, the source gives them in different places.

Tests used:
[1] = tested on: methicillin resistant Staphylococcus aureus (MRSA) Mu50; test: MIC of antibiotics against MRSA Mu50 with or without spermine; format: cell-based; conditions: for MICs in the presence or absence of spermine (1 mM): Spermine: with 1 mM spermine; for MIC: Staphylococcus aureus, MRSA, read-out: MICs in the presence or absence of spermine (1 mM): No add; for MICs in the presence or absence of spermine (1 mM): No add / MIC: no spermine
[2] = tested on: Salmonella typhimurium LT2; conditions: for MICs in the indicated concentrations (mM) of polyamines: Spermine (1 mM): with 1 mM spermine; for MICs in the indicated concentrations (mM) of polyamines: Spermidine (20 mM): with 20 mM spermidine;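 as to all read-outs here: Two-fold agar or broth dilution in Mueller-Hinton broth, MIC taken as lowest drug concentration without visible turbidity, tested alone or combined with polyamines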
[3] = tested on: MRSA Staphylococcus aureus 700699; test: MIC of antibiotics against MRSA Staphylococcus aureus 700699 with or without spermine; format: cell-based; conditions: for MICs in the absence or presence of spermine: Spermine (1 mM): with 1 mM spermine; for MIC: Staphylococcus aureus, MRSA, read-out: MICs in the absence or presence of spermine: No add
[4] = tested on: E. coli (K10, K12, C921-61); test: MIC of antibiotics against E. coli strains with or without polyamines (FIG. 3); format: cell-based; conditions: E. coli K10, K12, C921-61 and S. typhimurium LT2
[5] = tested on: Salmonella typhimurium LT2; test: microbe, parasite or virus in culture; conditions: Salmonella enterica, read-out: MICs in the indicated concentrations (mM) of polyamines: No add;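 also: Two-fold agar or broth dilution in Mueller-Hinton broth, MIC taken as lowest drug concentration without visible turbidity, tested alone or combined with polyamines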
P. aeruginosa PAO1 = test: MIC of antibiotics against P. aeruginosa PAO1 with or without polyamines; format: cell-based

Row | Molecule | MICs in the presence or absence of spermine (1 mM): Spermine [1] [µg/mL] | MICs in the absence or presence of spermine: Spermine (1 mM) [3] [µg/mL] | MIC ([3]; no spermine) [µg/mL] | MIC [1] [µg/mL] | also measured
1 | CC1(C)S[C@@H]2[C@H](NC(=O)Cc3ccccc3)C(=O)N2[C@H]1C(=O)O [Penicillin G] | 0.25 | 0.25 |  |  | MICs in the presence or absence of spermine (1 mM): No add [1]: 16 µg/mL; MICs in the indicated concentrations (mM) of polyamines: No add ([2]; no polyamine): 16 µg/mL; MICs in the indicated concentrations (mM) of polyamines: Spermine (1 mM) [2]: 2 µg/mL; MICs in the indicated concentrations (mM) of polyamines: Spermidine (20 mM) [2]: 2 µg/mL; MICs in the absence or presence of spermine: No add ([3]; no spermine): 16 µg/mL; susceptibility with the combination of polyamines and antibiotics [4]: improved susceptibility
2 | NC[C@H]1O[C@H](O[C@H]2[C@H](O)[C@@H](O[C@H]3O[C@H](CO)[C@@H](O)[C@H](N)[C@H]3O)[C@H](N)C[C@@H]2N)[C@H](O)[C@@H](O)[C@@H]1O [Kanamycin] |  | >16 | > 16 |  | MIC [5]: 4 µg/mL (≈ 8.26 µM); MICs in the indicated concentrations (mM) of polyamines: Spermine (1 mM) [2]: 2 µg/mL; MICs in the indicated concentrations (mM) of polyamines: Spermidine (20 mM) [2]: 4 µg/mL
3 | CC1(C)S[C@@H]2[C@H](NC(=O)[C@H](C(=O)O)c3ccsc3)C(=O)N2[C@H]1C(=O)O [Ticarcillin] | 4 | 4 | 256 | 256 | MIC [5]: 4 µg/mL (≈ 10.4 µM); MICs in the indicated concentrations (mM) of polyamines: Spermine (1 mM) [2]: 0.5 µg/mL; MICs in the indicated concentrations (mM) of polyamines: Spermidine (20 mM) [2]: 1 µg/mL; susceptibility with the combination of polyamines and antibiotics [4]: improved susceptibility
4 | C[C@H]1[C@H](NC(=O)/C(=N\OC(C)(C)C(=O)O)c2csc(N)n2)C(=O)N1S(=O)(=O)O [Aztreonam] |  | >256 | > 1020 |  | 
5 | Cc1onc(-c2ccccc2)c1C(=O)N[C@@H]1C(=O)N2[C@@H]1SC(C)(C)[C@@H]2C(=O)O [Oxacillin] | 1 | 2 | ≥ 256 | ≥ 256 | MIC [5]: 256 µg/mL (≈ 638 µM); decrease of MIC with exogenous spermine ([1]; spermine 1 mM and less): over 100 fold; MICs in the indicated concentrations (mM) of polyamines: Spermidine (20 mM) [2]: 64 µg/mL; susceptibility with the combination of polyamines and antibiotics [4]: improved susceptibility
6 | Cc1onc(-c2ccccc2Cl)c1C(=O)N[C@@H]1C(=O)N2[C@@H]1SC(C)(C)[C@@H]2C(=O)O [Cloxacillin] | 1 | 2 | > 256 | ≥ 256 | 
7 | CN[C@H](CC(C)C)C(=O)N[C@H]1C(=O)N[C@@H](CC(N)=O)C(=O)N[C@H]2C(=O)N[C@H]3C(=O)N[C@H](C(=O)N[C@H](C(=O)O)c4cc(O)cc(O)c4-c4cc3ccc4O)[C@H](O)c3ccc(c(Cl)c3)Oc3cc2cc(c3O[C@@H]2O[C@H](CO)[C@@H](O)[C@H](O)[C@H]2O[C@H]2C[C@](C)(N)[C@H](O)[C@H](C)O2)Oc2ccc(cc2Cl)[C@H]1O [Vancomycin] |  | 4 |  |  | MIC [3]: 4 µg/mL
8 | CCN1CCN(C(=O)N[C@@H](C(=O)N[C@@H]2C(=O)N3C(C(=O)O)=C(CSc4nnnn4C)CS[C@H]23)c2ccc(O)cc2)C(=O)C1=O [Cefoperazone] | 16 | >4 | > 512 | > 512 | 
9 | CC(C)(O/N=C(\C(=O)N[C@@H]1C(=O)N2C(C(=O)[O-])=C(C[n+]3ccccc3)CS[C@H]12)c1csc(N)n1)C(=O)O [Ceftazidime] | 4 | 4 | 256 | 256 | 
10 | CO[C@@]1(NC(=O)C(C(=O)O)c2ccc(O)cc2)C(=O)N2C(C(=O)O)=C(CSc3nnnn3C)CO[C@@H]21 (stereo partly drawn) [Moxalactam] |  | >32 | > 512 |  | 
11 | Gentamicin |  | 256 |  |  | MICs in the absence or presence of spermine: No add ([3]; no spermine): 256 µg/mL
12 | CC1(C)S[C@@H]2[C@H](NC(=O)[C@H](N)c3ccccc3)C(=O)N2[C@H]1C(=O)O [Ampicillin] | 2 | 2 | ≥ 32 | ≥ 32 | MIC [5]: 16 µg/mL (≈ 45.8 µM); susceptibility with the combination of polyamines and antibiotics [4]: improved susceptibility
13 | CO/N=C(\C(=O)N[C@@H]1C(=O)N2C(C(=O)O)=C(CSc3nc(=O)c(=O)[nH]n3C)CS[C@H]12)c1csc(N)n1 [Ceftriaxone] | 16 | 16 | > 512 | > 512 | 
14 | CC(=O)OCC1=C(C(=O)O)N2C(=O)[C@@H](NC(=O)CCC[C@@H](N)C(=O)O)[C@H]2SC1 [Cephalosporin C] |  | >128 |  |  | MICs in the absence or presence of spermine: No add ([3]; no spermine): >512 µg/mL
15 | CO/N=C(\C(=O)N[C@@H]1C(=O)N2C(C(=O)O)=C(COC(C)=O)CS[C@H]12)c1csc(N)n1 [Cefotaxime] | 1 | 1 | 128 | 128 | 
16 | CN(C)[C@@H]1C(O)=C(C(N)=O)C(=O)[C@@]2(O)C(O)=C3C(=O)c4c(O)cccc4[C@@](C)(O)[C@H]3C[C@@H]12 [Tetracycline] | 8 | 4 | 32 | 32 | MIC [5]: 2 µg/mL (≈ 4.5 µM); MICs in the indicated concentrations (mM) of polyamines: Spermine (1 mM) [2]: 2 µg/mL; MICs in the indicated concentrations (mM) of polyamines: Spermidine (20 mM) [2]: 2 µg/mL
17 | CN[C@@H]1[C@H](O)[C@H](NC)[C@H]2O[C@@]3(O)C(=O)C[C@@H](C)O[C@H]3O[C@@H]2[C@H]1O [Spectinomycin] |  |  |  |  | MIC [5]: 32 µg/mL (≈ 96.3 µM); MICs in the indicated concentrations (mM) of polyamines: Spermine (1 mM) [2]: 32 µg/mL; MICs in the indicated concentrations (mM) of polyamines: Spermidine (20 mM) [2]: 32 µg/mL; susceptibility with the combination of polyamines and antibiotics [4]: improved susceptibility
18 | O=C(Cc1cccs1)N[C@@H]1C(=O)N2C(C(=O)[O-])=C(C[n+]3ccccc3)CS[C@H]12 [Cephaloridine] | 0.25 | 0.25 | 16 | 16 | 
19 | CC1(C)S[C@@H]2[C@H](NC(=O)[C@H](N)c3ccc(O)cc3)C(=O)N2[C@H]1C(=O)O [Amoxicillin] | 0.5 | 0.5 | 16 | 16 | 
20 | NCCCCN [Putrescine] |  |  |  |  | MICs to carbenicillin in the indicated concentration of polyamines (P. aeruginosa PAO1; 0 mM polyamine): 64 µg/mL; MICs to carbenicillin in the indicated concentration of polyamines (P. aeruginosa PAO1; 0.5 mM polyamine): 64 µg/mL; MICs to carbenicillin in the indicated concentration of polyamines (P. aeruginosa PAO1; 1 mM polyamine): 32 µg/mL; MICs to carbenicillin in the indicated concentration of polyamines (P. aeruginosa PAO1; 5 mM polyamine): 32 µg/mL; MICs to carbenicillin in the indicated concentration of polyamines (P. aeruginosa PAO1; 10 mM polyamine): 32 µg/mL; MICs to carbenicillin in the indicated concentration of polyamines (P. aeruginosa PAO1; 20 mM polyamine): 16 µg/mL
21 | CCn1cc(C(=O)O)c(=O)c2cc(F)c(N3CCNCC3)cc21 [Norfioxacin] | 64 |  |  |  | MICs in the presence or absence of spermine (1 mM): No add [1]: 128 µg/mL
22 | NCCCCCN [Cadaverine] |  |  |  |  | MICs to carbenicillin in the indicated concentration of polyamines (P. aeruginosa PAO1; 0 mM polyamine): 64 µg/mL; MICs to carbenicillin in the indicated concentration of polyamines (P. aeruginosa PAO1; 0.5 mM polyamine): 64 µg/mL; MICs to carbenicillin in the indicated concentration of polyamines (P. aeruginosa PAO1; 1 mM polyamine): 32 µg/mL; MICs to carbenicillin in the indicated concentration of polyamines (P. aeruginosa PAO1; 5 mM polyamine): 32 µg/mL; MICs to carbenicillin in the indicated concentration of polyamines (P. aeruginosa PAO1; 10 mM polyamine): 32 µg/mL; MICs to carbenicillin in the indicated concentration of polyamines (P. aeruginosa PAO1; 20 mM polyamine): 16 µg/mL
23 | CC(=O)OCC1=C(C(=O)O)N2C(=O)[C@@H](NC(=O)Cc3cccs3)[C@H]2SC1 [Cephalothin] | 4 | 4 | 32 | 32 | 
